{
  "source": "patent US20200009088A1",
  "about": "“COMPOSITIONS AND METHODS FOR TREATING ANDROGEN-INDEPENDENT CANCER” (The Regents of the University of California, priority 2017, published 2020)",
  "key": {"in vivo": {"assay": "in vivo", "conditions": "for Cmax: rat plasma, p.o. 200 mg/kg", "experimental": "Blood samples were obtained at the time points indicated in FIG. 18 (0 minutes, 15 minutes, 30 minutes, 1 hour, 1.5 hours, 2 hours, 4 hours, 6 hours, 8 hours, and 24 hours) and the plasma was isolated for LC-MS analysis."}, "AR variants [1]": {"tested_on": "AR variants", "assay": "AR variant protein degradation (cycloheximide, MG132, ubiquitin IP) in CWR22Rv1 cells", "format": "cell-based", "conditions": "FIG. 15", "experimental": "(§1) “AR-Variants” represents a combination of all forms of AR.\n(§2) To determine if the small molecule modulators affect AR-V7 protein expression via protein degradation, CWR22Rv1 and C4-2B MDVR cells were treated with cycloheximide (CHX) and the half-life of AR-V7 protein was measured.\nAfter 0, 2, 4, and 8 hours, whole cell lysate was collected and subjected to Western blot. The half-life of AR-V7 was then calculated.\nSubsequently, the whole cell lysate was collected and subjected to Western blot.\nFor the data shown in FIG. 15C, CWR22Rv1 cells were treated with Nic, Compound 7, or Compound 31. Subsequently, whole cell lysate was immunoprecipitated with an AR antibody and blotted with ubiquitin and AR antibodies."}, "C4-2B AbiR cells": {"tested_on": "C4-2B AbiR cells", "assay": "Cell growth assay (cell numbers), C4-2B AbiR", "format": "cell-based", "conditions": "48 hours, FIG. 7C"}, "CWR22Rv1 cells": {"tested_on": "CWR22Rv1 cells", "assay": "Cell growth assay (cell numbers), CWR22Rv1", "format": "cell-based"}, "AR-V3": {"tested_on": "AR-V3", "assay": "PSA-luc assay in C4-2B cells, AR-V3", "format": "cell-based", "conditions": "FBS, 1 μM overnight, FIG. 14C", "text": "C4-2B cells were cotransfected with pcDNA, with or without AR-V1, AR-V3, AR-V7, AR-V9 or AR-V12, and with PSA-E/P-luciferase plasmids in FBS condition."}, "AR variants [2]": {"tested_on": "AR variants", "assay": "AR variant protein degradation (cycloheximide, MG132, ubiquitin IP) in C4-2B MDVR cells", "format": "cell-based", "conditions": "FIG. 16", "experimental": "as §1, §2\nAfter 0, 2, 4, and 8 hours, whole cell lysate was collected and subjected to Western blot. Half-life of AR-V7 was then calculated.\nWhole cell lysate was subsequently collected and subjected to Western blot.\nWhole cell lysate was immunoprecipitated with an AR antibody and blot with ubiquitin and AR antibodies."}, "C4-2BMDVR cells": {"tested_on": "C4-2BMDVR cells", "assay": "ELISA cell death (apoptosis) assay", "format": "cell-based", "conditions": "compound alone, analogs compared with niclosamide, FIG. 8", "experimental": "To further examine the anti-cancer effects of these compounds, an ELISA cell death assay was performed."}, "C4-2B MDVR cells": {"tested_on": "C4-2B MDVR cells", "assay": "Cell growth assay (cell numbers), C4-2B MDVR", "format": "cell-based", "conditions": "C4-2B MDVR, 48 hours"}, "C4-2-V7 cells": {"tested_on": "C4-2-V7 cells", "assay": "Cell growth assay (cell numbers), C4-2-V7", "format": "cell-based", "conditions": "48 hours, FIG. 7D"}, "[3]": {"conditions": "male, Sprague-Dawley, rat, in vivo, po, 200 mg/kg"}, "[4]": {"conditions": "male, Sprague-Dawley, rat, plasma, po, 200 mg/kg"}},
  "data": [
    {"smiles": "O=C(Nc1ccc([N+](=O)[O-])cc1Cl)c1cc(Cl)ccc1O", "note": "[niclosamide, (5-chloro-N-2-chloro-4-nitro-phenyl)-2-hydroxybenzamide, reference compound]", "values": [
      {"measurement": "AUC_% Extrap_obs", "setting": "in vivo; [3]", "result": "3.67 +/− 3.73%"},
      {"measurement": "HL_Lambda_z", "setting": "in vivo; [3]", "result": "328.09 ± 173.05", "unit": "min"},
      {"measurement": "AUC(0-inf)", "setting": "in vivo; [4]", "result": 28.4, "unit": "µM·h"},
      {"measurement": "AUC(0-t)", "setting": "in vivo; [4]", "result": 4.14, "unit": "µM·h"},
      {"measurement": "Tmax", "setting": "in vivo; [4]", "result": 25, "unit": "min"},
      {"measurement": "Cmax", "setting": "in vivo; male, Sprague-Dawley, rat, plasma, po, 200 mg/kg, Cmax", "result": 1560, "unit": "nM"},
      {"measurement": "Cmax", "setting": "in vivo", "result": 1560, "unit": "nM"},
      {"measurement": "AR variant degradation via the proteasome-ubiquitination system", "setting": "AR variants [1]", "result": "degraded"},
      {"measurement": "cell proliferation, combination with enzalutamide (MDV)", "setting": "C4-2B AbiR cells; 0.5 μM + enzalutamide", "result": "further inhibited"},
      {"measurement": "cell growth", "setting": "C4-2B AbiR cells; 0.5 μM", "result": "significantly inhibited"},
      {"measurement": "cell proliferation, combination with enzalutamide (MDV)", "setting": "CWR22Rv1 cells; CWR22Rv1, 0.5 μM + enzalutamide, 48 hours, FIG. 7A", "result": "further inhibited"},
      {"measurement": "cell growth", "setting": "CWR22Rv1 cells; CWR22Rv1, 0.5 μM, 48 hours, FIG. 7A", "result": "significantly inhibited"},
      {"measurement": "cell growth", "setting": "CWR22Rv1 cells; CWR22Rv1, 48 hours, increasing doses of niclosamide/analogs, FIG. 6", "result": "able to inhibit cell growth in a dose-dependent manner"},
      {"measurement": "AR-V3-mediated PSA-luc activity", "setting": "AR-V3", "result": "inhibited"},
      {"measurement": "AR variant degradation via the proteasome-ubiquitination system", "setting": "AR variants [2]", "result": "degraded"},
      {"measurement": "cell apoptosis", "setting": "C4-2BMDVR cells", "result": "significantly induced"},
      {"measurement": "cell proliferation, combination with enzalutamide (MDV)", "setting": "C4-2B MDVR cells; 0.5 μM + enzalutamide, FIG. 7B", "result": "further inhibited"},
      {"measurement": "cell growth", "setting": "C4-2B MDVR cells; 0.5 μM, FIG. 7B", "result": "significantly inhibited"},
      {"measurement": "cell growth", "setting": "C4-2B MDVR cells; increasing doses of niclosamide/analogs, FIG. 6", "result": "able to inhibit cell growth in a dose-dependent manner"},
      {"measurement": "cell proliferation, combination with enzalutamide (MDV)", "setting": "C4-2-V7 cells; C4-2-V7, 0.5 μM + enzalutamide", "result": "further inhibited"},
      {"measurement": "cell growth", "setting": "C4-2-V7 cells; C4-2-V7, 0.5 μM", "result": "significantly inhibited"}
    ]}
  ]
}
